Laboratory results reported in ChEMBL document CHEMBL4251601 (Eur J Med Chem, 2018).

Assays:
[1] = target: Cyclin-dependent kinase 4/cyclin D1 (Homo sapiens) (UniProt P11802+P24385); experiment: Inhibition of recombinant full length human GST-tagged CDK4/Cyclin-D1 expressed in baculovirus expression system at 0.1 uM by TR-FRET assay relative to control
[2] = target: Cytoplasmic tyrosine-protein kinase BMX (Homo sapiens) (UniProt P51813); experiment: Inhibition of recombinant full length human His-tagged BMX expressed in baculovirus expression system at 0.1 uM by TR-FRET assay relative to control
[3] = target: Serine/threonine-protein kinase Chk2 (Homo sapiens) (UniProt O96017); experiment: Inhibition of recombinant full length human His-tagged CHEK2 expressed in baculovirus expression system at 0.1 uM by Z'-Lyte assay relative to control
[4] = target: Hepatocyte growth factor receptor (Homo sapiens) (UniProt P08581); experiment: Inhibition of recombinant human His-tagged c-Met cytoplasmic domain expressed in baculovirus expression system at 0.1 uM by Z'-Lyte assay relative to control
[5] = system: Epidermal growth factor receptor (Homo sapiens), P00533 [L858R,T790M]; experiment: Inhibition of recombinant human GST-tagged EGFR T790M/L858R double mutant expressed in baculovirus expression system at 0.1 uM by TR-FRET assay relative to control
[6] = target: Beta-adrenergic receptor kinase 1 (Homo sapiens) (UniProt P25098); experiment: Inhibition of recombinant human full length His-tagged GRK2 expressed in baculovirus expression system at 0.1 uM by Z'-Lyte assay relative to control
[7] = target: Insulin receptor (Homo sapiens) (UniProt P06213); experiment: Inhibition of recombinant human GST-tagged INSR cytoplasmic domain expressed in baculovirus expression system at 0.1 uM by Z'-Lyte assay relative to control
[8] = target: Leucine-rich repeat serine/threonine-protein kinase 2 (Homo sapiens) (UniProt Q5S007); experiment: Inhibition of recombinant human GST-tagged LRRK2 (970 to 2527 residues) expressed in baculovirus expression system at 0.1 uM by TR-FRET assay relative to control
Leucine-rich repeat serine/threonine-protein kinase 2 (Homo sapiens), sequence (Q5S007 whole entry, the tested form may be a part): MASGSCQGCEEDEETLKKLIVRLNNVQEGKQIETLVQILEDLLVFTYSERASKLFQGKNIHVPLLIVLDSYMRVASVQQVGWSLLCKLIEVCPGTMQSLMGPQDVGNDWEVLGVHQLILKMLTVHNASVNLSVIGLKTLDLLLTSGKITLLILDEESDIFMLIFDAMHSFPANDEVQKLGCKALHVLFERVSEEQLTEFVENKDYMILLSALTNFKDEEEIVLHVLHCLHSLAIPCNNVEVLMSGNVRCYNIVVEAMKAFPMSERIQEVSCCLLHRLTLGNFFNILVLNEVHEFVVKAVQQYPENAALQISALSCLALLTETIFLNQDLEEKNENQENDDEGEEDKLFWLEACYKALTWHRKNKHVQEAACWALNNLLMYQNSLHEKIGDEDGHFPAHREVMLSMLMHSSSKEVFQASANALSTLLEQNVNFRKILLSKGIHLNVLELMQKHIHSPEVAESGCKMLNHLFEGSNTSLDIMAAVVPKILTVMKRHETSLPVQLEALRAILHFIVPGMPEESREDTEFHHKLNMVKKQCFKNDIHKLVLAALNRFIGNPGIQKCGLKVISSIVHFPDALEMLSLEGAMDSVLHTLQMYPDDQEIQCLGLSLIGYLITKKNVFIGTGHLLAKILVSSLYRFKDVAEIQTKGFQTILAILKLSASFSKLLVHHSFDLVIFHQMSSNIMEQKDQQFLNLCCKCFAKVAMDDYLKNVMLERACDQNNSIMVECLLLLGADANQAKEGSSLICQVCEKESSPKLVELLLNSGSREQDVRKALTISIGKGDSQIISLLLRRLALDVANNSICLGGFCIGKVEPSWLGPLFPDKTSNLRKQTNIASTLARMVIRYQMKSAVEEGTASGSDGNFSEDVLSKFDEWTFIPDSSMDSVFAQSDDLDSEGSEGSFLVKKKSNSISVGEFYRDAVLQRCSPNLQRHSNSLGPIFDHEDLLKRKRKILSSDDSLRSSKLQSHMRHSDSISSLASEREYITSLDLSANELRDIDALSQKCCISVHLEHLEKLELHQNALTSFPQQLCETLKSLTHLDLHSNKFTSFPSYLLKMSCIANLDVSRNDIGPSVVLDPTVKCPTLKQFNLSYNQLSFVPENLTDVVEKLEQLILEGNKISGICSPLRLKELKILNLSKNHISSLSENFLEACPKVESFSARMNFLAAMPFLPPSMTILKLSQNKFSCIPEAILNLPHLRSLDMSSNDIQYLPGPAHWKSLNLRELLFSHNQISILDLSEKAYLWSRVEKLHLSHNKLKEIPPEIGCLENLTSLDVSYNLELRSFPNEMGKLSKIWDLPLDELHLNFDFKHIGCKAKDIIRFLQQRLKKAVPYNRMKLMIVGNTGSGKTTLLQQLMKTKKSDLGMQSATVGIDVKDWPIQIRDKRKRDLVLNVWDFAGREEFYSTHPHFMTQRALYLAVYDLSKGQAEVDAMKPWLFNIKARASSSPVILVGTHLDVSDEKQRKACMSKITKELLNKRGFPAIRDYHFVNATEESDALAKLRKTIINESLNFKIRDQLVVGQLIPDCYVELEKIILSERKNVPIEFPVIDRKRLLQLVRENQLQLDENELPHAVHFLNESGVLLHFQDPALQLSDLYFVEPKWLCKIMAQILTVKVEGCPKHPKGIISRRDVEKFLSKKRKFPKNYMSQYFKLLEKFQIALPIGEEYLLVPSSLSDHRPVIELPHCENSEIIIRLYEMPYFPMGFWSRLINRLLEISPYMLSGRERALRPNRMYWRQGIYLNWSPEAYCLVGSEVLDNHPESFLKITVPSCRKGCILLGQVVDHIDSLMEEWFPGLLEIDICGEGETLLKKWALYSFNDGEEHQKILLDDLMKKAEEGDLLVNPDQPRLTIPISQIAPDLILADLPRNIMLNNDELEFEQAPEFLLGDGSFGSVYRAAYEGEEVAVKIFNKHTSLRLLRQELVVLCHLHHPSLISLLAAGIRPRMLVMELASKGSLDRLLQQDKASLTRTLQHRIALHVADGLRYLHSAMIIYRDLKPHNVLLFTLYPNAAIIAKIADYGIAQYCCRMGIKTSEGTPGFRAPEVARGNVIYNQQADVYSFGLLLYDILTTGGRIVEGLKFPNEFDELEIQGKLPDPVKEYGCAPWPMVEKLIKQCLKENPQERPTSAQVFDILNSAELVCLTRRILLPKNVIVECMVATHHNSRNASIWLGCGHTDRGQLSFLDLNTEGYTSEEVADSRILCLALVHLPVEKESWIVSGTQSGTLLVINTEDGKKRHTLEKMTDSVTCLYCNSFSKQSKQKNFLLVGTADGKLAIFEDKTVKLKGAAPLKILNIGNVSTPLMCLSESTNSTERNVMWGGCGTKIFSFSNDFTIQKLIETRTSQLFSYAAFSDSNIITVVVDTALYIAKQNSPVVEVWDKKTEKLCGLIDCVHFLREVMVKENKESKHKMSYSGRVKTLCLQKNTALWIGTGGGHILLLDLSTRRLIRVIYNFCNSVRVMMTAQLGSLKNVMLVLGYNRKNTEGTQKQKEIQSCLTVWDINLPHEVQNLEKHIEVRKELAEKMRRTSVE

[9] = target: Tyrosine-protein kinase Mer (Homo sapiens) (UniProt Q12866); experiment: Inhibition of recombinant human GST-tagged MERTK (578 to 872 residues) expressed in baculovirus expression system at 0.1 uM by Z'-Lyte assay relative to control
[10] = target: Serine/threonine-protein kinase PAK 1 (Homo sapiens) (UniProt Q13153); experiment: Inhibition of recombinant human full length GST-tagged PAK1 expressed in baculovirus expression system at 0.1 uM by Z'-Lyte assay relative to control
[11] = target: 3-phosphoinositide-dependent protein kinase 1 (Homo sapiens) (UniProt O15530); experiment: Inhibition of recombinant human full length His-tagged PDK1 expressed in baculovirus expression system at 0.1 uM by Z'-Lyte assay relative to control
3-phosphoinositide-dependent protein kinase 1 (Homo sapiens), sequence (O15530 whole entry, canonical isoform): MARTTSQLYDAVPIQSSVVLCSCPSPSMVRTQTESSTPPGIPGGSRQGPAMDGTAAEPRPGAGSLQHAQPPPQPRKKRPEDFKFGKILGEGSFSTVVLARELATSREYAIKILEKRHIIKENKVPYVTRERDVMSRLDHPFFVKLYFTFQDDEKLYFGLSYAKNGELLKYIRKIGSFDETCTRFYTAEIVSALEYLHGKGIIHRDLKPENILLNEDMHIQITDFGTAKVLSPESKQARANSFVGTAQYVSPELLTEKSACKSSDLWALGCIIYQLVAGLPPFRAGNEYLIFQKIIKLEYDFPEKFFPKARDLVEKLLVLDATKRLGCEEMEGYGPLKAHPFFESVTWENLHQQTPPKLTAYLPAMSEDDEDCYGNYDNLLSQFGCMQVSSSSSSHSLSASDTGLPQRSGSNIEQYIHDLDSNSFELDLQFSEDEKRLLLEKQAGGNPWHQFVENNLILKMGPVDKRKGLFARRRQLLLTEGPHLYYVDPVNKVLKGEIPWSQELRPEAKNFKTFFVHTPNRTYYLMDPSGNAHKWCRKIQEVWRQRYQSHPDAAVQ

[12] = target: Phosphatidylinositol 4,5-bisphosphate 3-kinase catalytic subunit gamma isoform (Homo sapiens) (UniProt P48736); experiment: Inhibition of PI3K gamma (unknown origin) at 0.1 uM by ADP-Glo assay relative to control
[13] = target: Angiopoietin-1 receptor (Homo sapiens) (UniProt Q02763); experiment: Inhibition of recombinant human GST-tagged TIE2 cytoplasmic domain expressed in baculovirus expression system at 0.1 uM by Z'-Lyte assay relative to control
Angiopoietin-1 receptor (Homo sapiens), sequence (Q02763 whole entry, the tested form may be a part): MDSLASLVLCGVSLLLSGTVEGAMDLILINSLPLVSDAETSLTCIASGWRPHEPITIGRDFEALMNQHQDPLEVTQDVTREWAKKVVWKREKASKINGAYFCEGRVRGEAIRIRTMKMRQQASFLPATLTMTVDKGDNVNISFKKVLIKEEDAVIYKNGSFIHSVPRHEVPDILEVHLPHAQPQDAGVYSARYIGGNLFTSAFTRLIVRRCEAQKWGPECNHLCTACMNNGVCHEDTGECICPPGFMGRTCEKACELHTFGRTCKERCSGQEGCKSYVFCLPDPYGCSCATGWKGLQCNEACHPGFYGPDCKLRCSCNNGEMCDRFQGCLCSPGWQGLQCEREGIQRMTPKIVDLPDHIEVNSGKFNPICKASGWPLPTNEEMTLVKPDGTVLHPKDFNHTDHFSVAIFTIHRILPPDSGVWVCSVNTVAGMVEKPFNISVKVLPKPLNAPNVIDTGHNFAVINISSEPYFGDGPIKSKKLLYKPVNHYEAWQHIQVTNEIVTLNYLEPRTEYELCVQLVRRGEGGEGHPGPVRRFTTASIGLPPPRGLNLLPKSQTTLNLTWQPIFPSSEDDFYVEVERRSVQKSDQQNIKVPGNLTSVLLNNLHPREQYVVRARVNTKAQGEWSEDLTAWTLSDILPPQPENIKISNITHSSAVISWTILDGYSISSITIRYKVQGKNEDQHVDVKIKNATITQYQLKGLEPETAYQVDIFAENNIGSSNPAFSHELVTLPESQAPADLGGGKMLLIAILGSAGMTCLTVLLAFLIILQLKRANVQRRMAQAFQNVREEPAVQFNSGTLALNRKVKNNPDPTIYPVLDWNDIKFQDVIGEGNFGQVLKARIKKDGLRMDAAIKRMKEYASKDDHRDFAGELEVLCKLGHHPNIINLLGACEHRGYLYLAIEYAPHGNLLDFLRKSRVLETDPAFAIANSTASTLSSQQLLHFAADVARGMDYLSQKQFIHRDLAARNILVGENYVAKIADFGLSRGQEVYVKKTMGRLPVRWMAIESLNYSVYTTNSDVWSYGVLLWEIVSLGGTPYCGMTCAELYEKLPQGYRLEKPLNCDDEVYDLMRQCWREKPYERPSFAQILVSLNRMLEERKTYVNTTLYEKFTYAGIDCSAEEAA

[14] = target: High affinity nerve growth factor receptor (Homo sapiens) (UniProt P04629); experiment: Inhibition of recombinant human His-tagged TRKA cytoplasmic domain expressed in baculovirus expression system at 0.1 uM by Z'-Lyte assay relative to control
[15] = target: Casein kinase I isoform alpha (Homo sapiens) (UniProt P48729); experiment: Inhibition of recombinant full length human GST-tagged CK1alpha expressed in baculovirus expression system at 1 uM by Z'-Lyte assay relative to control
Casein kinase I isoform alpha (Homo sapiens), sequence (P48729 2-337 limits assumed): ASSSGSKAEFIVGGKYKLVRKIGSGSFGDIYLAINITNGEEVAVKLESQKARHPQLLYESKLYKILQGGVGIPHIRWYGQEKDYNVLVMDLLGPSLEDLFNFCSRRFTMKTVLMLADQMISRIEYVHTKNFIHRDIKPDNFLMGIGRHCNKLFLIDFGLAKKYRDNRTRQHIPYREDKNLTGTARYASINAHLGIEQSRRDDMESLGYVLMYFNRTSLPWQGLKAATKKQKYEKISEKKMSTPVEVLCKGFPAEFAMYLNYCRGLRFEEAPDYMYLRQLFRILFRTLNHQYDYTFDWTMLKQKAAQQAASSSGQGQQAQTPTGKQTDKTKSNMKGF

[16] = target: Fibroblast growth factor receptor 1 (Homo sapiens) (UniProt P11362); experiment: Inhibition of recombinant human His-tagged FGFR1 cytoplasmic domain expressed in baculovirus expression system at 1 uM by Z'-Lyte assay relative to control
[17] = target: G protein-coupled receptor kinase 6 (Homo sapiens) (UniProt P43250); experiment: Inhibition of recombinant human full length GST-tagged GRK6 expressed in baculovirus expression system at 1 uM by Z'-Lyte assay relative to control
[18] = target: Tyrosine-protein kinase JAK3 (Homo sapiens) (UniProt P52333); experiment: Inhibition of recombinant human GST-tagged JAK3 expressed in baculovirus expression system at 1 uM by TR-FRET assay relative to control
[19] = target: Serine/threonine-protein kinase 10 (Homo sapiens) (UniProt O94804); experiment: Inhibition of LOK1 (unknown origin) at 1 uM by Z'-Lyte assay relative to control
[20] = target: Leucine-rich repeat serine/threonine-protein kinase 2 (Homo sapiens) (UniProt Q5S007); experiment: Inhibition of recombinant human GST-tagged LRRK2 (970 to 2527 residues) expressed in baculovirus expression system at 1 uM by TR-FRET assay relative to control
[21] = target: Platelet-derived growth factor receptor beta (Homo sapiens) (UniProt P09619); experiment: Inhibition of recombinant human His-tagged PDGFRbeta cytoplasmic domain expressed in baculovirus expression system at 1 uM by Z'-Lyte assay relative to control
[22] = target: 3-phosphoinositide-dependent protein kinase 1 (Homo sapiens) (UniProt O15530); experiment: Inhibition of recombinant human full length His-tagged PDK1 expressed in baculovirus expression system at 1 uM by Z'-Lyte assay relative to control
[23] = target: Phosphatidylinositol 4,5-bisphosphate 3-kinase catalytic subunit gamma isoform (Homo sapiens) (UniProt P48736); experiment: Inhibition of PI3K gamma (unknown origin) at 1 uM by ADP-Glo assay relative to control
[24] = target: Proto-oncogene tyrosine-protein kinase Src (Homo sapiens) (UniProt P12931); experiment: Inhibition of recombinant human full length His-tagged SRC expressed in baculovirus expression system at 1 uM by Z'-Lyte assay relative to control
Proto-oncogene tyrosine-protein kinase Src (Homo sapiens), sequence (P12931 2-536 limits assumed): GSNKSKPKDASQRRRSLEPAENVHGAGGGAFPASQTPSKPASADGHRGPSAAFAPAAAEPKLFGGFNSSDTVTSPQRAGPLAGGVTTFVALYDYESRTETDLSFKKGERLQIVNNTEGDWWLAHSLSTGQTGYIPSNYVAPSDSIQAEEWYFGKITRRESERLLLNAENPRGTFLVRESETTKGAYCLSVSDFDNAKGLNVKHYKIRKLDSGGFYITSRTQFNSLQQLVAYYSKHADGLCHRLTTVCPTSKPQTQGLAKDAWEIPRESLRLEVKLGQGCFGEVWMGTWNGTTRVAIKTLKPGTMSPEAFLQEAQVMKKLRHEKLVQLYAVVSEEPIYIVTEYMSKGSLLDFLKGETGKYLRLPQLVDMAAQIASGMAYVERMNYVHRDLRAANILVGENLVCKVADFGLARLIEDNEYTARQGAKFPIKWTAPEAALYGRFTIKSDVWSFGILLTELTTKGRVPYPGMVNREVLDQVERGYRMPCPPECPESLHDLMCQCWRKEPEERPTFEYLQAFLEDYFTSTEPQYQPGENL

[25] = target: Angiopoietin-1 receptor (Homo sapiens) (UniProt Q02763); experiment: Inhibition of recombinant human GST-tagged TIE2 cytoplasmic domain expressed in baculovirus expression system at 1 uM by Z'-Lyte assay relative to control
[26] = target: Tyrosine-protein kinase receptor TYRO3 (Homo sapiens) (UniProt Q06418); experiment: Inhibition of recombinant human GST-tagged TYRO3 cytoplasmic domain (451 to 890 residues) expressed in baculovirus expression system at 1 uM by Z'-Lyte assay relative to control
U-87 MG = experiment: Antiproliferative activity against human U87MG cells after 72 hrs by DAPI staining based assay; type: functional, cell-based, U-87MG ATCC
[27] = 1-octanol-phosphate buffer distribution coefficient, log D of the compound at pH 7.4 after 1 hr by LC-MS/MS method; type: physicochemical
[28] = AUC (0 to 24 hrs) in ICR mouse at 5 mg/kg, po administered as single dose by LC-MS/MS analysis; type: ADME, organism-based; design: time < 24 hr, dose 5 mg/kg, route oral; settings: in vivo
[29] = AUC (0 to infinity) in ICR mouse at 2 mg/kg, iv administered as single dose by LC-MS/MS analysis; type: ADME, organism-based; design: dose 2 mg/kg, time infinity, route intravenous; settings: in vivo
[30] = AUC (0 to infinity) in ICR mouse at 5 mg/kg, po administered as single dose by LC-MS/MS analysis; type: ADME, organism-based; design: dose 5 mg/kg, route oral, time infinity; settings: in vivo
[31] = Half life in ICR mouse at 2 mg/kg, iv administered as single dose by LC-MS/MS analysis; type: ADME, organism-based; settings: in vivo
[32] = Unbound Cmax in CD-1 mouse plasma at 10 mg/kg, po administered as single dose by LC-MS/MS analysis; type: ADME, organism-based; settings: in vivo

With `CC1=Nc2c(F)cc(-c3nc(Nc4ccc(C5CCN(C)CC5)cn4)ncc3F)cc2C12CCCC2` [CROZBACICLIB] the inhibition [1] was 106%, the inhibition [2] was 9% and the inhibition [3] was -2%. It also gave an inhibition [4] of 12%, an inhibition [5] of 27% and an inhibition [6] of -2%. For the same compound, the inhibition [7] was 2%, the inhibition [8] was 12% and the inhibition [9] was -1%. It also gave an inhibition [10] of -2%, an inhibition [11] of -3% and an inhibition [12] of -5%. The inhibition [13] was -6%, the inhibition [14] was 2% and the inhibition [15] was 5%. It also gave an inhibition [16] of 13%, an inhibition [17] of 4% and an inhibition [18] of 92%. The inhibition [19] was 81%, the inhibition [20] was 34% and the inhibition [21] was 20%. The inhibition [22] was 4%, the inhibition [23] was 19% and the inhibition [24] was 7%. For the same compound, the inhibition [25] was -2%, the inhibition [26] was 4% and the IC50 (U-87 MG) was 15.3 nM. It also gave a logD at 1 h [27] of 3.49, an AUC(0-t) at 24 h [28] of 2130 ng·h/mL and an AUC(0-inf) [29] of 1330 ng·h/mL. It also gave an AUC(0-inf) [30] of 2500 ng·h/mL, a half-life [31] of 9.1 h and a fCmax [32] of 5.73 ng/mL.
